Test results published in the NIST ThermoML archive (doi:10.1021/je400423u).
± gives the expanded uncertainty stated by the source.

Assay: xn = mol fraction of the nth substance listed
Conditions: 101 kPa, Liquid; for viscosity: Falling or rolling sphere viscometry; for mass density: Vibrating tube method

CC(C)CO [2-methyl-1-propanol] + CC(C)(C)O
Conditions	mass density [kg/m3]	viscosity [mPa·s]
308.15 K, x1 = 0.1038	773.016 ± 0.12	2.723 ± 0.021
308.15 K, x1 = 0.2004	775.321 ± 0.12	2.802 ± 0.022
308.15 K, x1 = 0.3131	777.898 ± 0.12	2.84 ± 0.022
308.15 K, x1 = 0.3971	779.742 ± 0.12	2.837 ± 0.022
308.15 K, x1 = 0.4999	781.894 ± 0.12	2.812 ± 0.022
308.15 K, x1 = 0.6002	783.901 ± 0.12	2.773 ± 0.022
308.15 K, x1 = 0.6999	785.765 ± 0.12	2.723 ± 0.021
308.15 K, x1 = 0.7993	787.468 ± 0.12	2.667 ± 0.021
308.15 K, x1 = 0.8941	788.855 ± 0.12	2.607 ± 0.02
308.15 K, x1 = 1	790.12 ± 0.12	2.382 ± 0.019
313.15 K, x1 = 0.1038	767.906 ± 0.13	2.19 ± 0.017
313.15 K, x1 = 0.2004	770.357 ± 0.13	2.263 ± 0.018
313.15 K, x1 = 0.3131	773.062 ± 0.12	2.312 ± 0.018
313.15 K, x1 = 0.3971	774.993 ± 0.12	2.327 ± 0.018
313.15 K, x1 = 0.4999	777.281 ± 0.12	2.329 ± 0.018
313.15 K, x1 = 0.6002	779.435 ± 0.12	2.317 ± 0.018
313.15 K, x1 = 0.6999	781.451 ± 0.12	2.294 ± 0.018
313.15 K, x1 = 0.7993	783.274 ± 0.12	2.264 ± 0.018
313.15 K, x1 = 0.8941	784.79 ± 0.12	2.229 ± 0.017
313.15 K, x1 = 1	786.12 ± 0.12	2.116 ± 0.017
318.15 K, x1 = 0.1038	762.689 ± 0.13	1.786 ± 0.014
318.15 K, x1 = 0.2004	765.271 ± 0.13	1.852 ± 0.015
318.15 K, x1 = 0.3131	768.112 ± 0.13	1.904 ± 0.015
318.15 K, x1 = 0.3971	770.15 ± 0.13	1.93 ± 0.015
318.15 K, x1 = 0.4999	772.578 ± 0.12	1.949 ± 0.015
318.15 K, x1 = 0.6002	774.881 ± 0.12	1.955 ± 0.015
318.15 K, x1 = 0.6999	777.066 ± 0.12	1.954 ± 0.015
318.15 K, x1 = 0.7993	779.045 ± 0.12	1.94 ± 0.015
318.15 K, x1 = 0.8941	780.694 ± 0.12	1.919 ± 0.015
318.15 K, x1 = 1	782.06 ± 0.12	1.861 ± 0.015
323.15 K, x1 = 0.1038	757.428 ± 0.13	1.479 ± 0.012
323.15 K, x1 = 0.2004	760.154 ± 0.13	1.536 ± 0.012
323.15 K, x1 = 0.3131	763.135 ± 0.13	1.59 ± 0.013
323.15 K, x1 = 0.3971	765.278 ± 0.13	1.619 ± 0.013
323.15 K, x1 = 0.4999	767.832 ± 0.13	1.643 ± 0.013
323.15 K, x1 = 0.6002	770.282 ± 0.13	1.658 ± 0.013
323.15 K, x1 = 0.6999	772.615 ± 0.12	1.664 ± 0.013
323.15 K, x1 = 0.7993	774.761 ± 0.12	1.662 ± 0.013
323.15 K, x1 = 0.8941	776.498 ± 0.12	1.655 ± 0.013
323.15 K, x1 = 1	777.93 ± 0.12	1.602 ± 0.013
328.15 K, x1 = 0.1038	752.049 ± 0.13	1.243 ± 0.0098
328.15 K, x1 = 0.2004	754.907 ± 0.13	1.293 ± 0.01
328.15 K, x1 = 0.3131	758.027 ± 0.13	1.342 ± 0.011
328.15 K, x1 = 0.3971	760.272 ± 0.13	1.372 ± 0.011
328.15 K, x1 = 0.4999	762.978 ± 0.13	1.4 ± 0.011
328.15 K, x1 = 0.6002	765.582 ± 0.13	1.42 ± 0.011
328.15 K, x1 = 0.6999	768.076 ± 0.13	1.433 ± 0.011
328.15 K, x1 = 0.7993	770.382 ± 0.13	1.438 ± 0.011
328.15 K, x1 = 0.8941	772.239 ± 0.12	1.439 ± 0.011
328.15 K, x1 = 1	773.73 ± 0.12	–
333.15 K, x1 = 0.1038	746.582 ± 0.14	1.057 ± 0.0086
333.15 K, x1 = 0.2004	749.576 ± 0.13	1.099 ± 0.0089
333.15 K, x1 = 0.3131	752.825 ± 0.13	1.145 ± 0.0092
333.15 K, x1 = 0.3971	755.183 ± 0.13	1.173 ± 0.0094
333.15 K, x1 = 0.4999	758.038 ± 0.13	1.202 ± 0.0095
333.15 K, x1 = 0.6002	760.796 ± 0.13	1.224 ± 0.0097
333.15 K, x1 = 0.6999	763.457 ± 0.13	1.241 ± 0.0098
333.15 K, x1 = 0.7993	765.918 ± 0.13	1.251 ± 0.0099
333.15 K, x1 = 0.8941	767.911 ± 0.13	1.257 ± 0.0099
333.15 K, x1 = 1	769.44 ± 0.13	–
338.15 K, x1 = 0.1038	741.045 ± 0.14	0.9089 ± 0.0077
338.15 K, x1 = 0.2004	744.179 ± 0.14	0.9461 ± 0.0079
338.15 K, x1 = 0.3131	747.58 ± 0.14	0.9857 ± 0.0082
338.15 K, x1 = 0.3971	750.026 ± 0.13	1.013 ± 0.0083
338.15 K, x1 = 0.4999	753.002 ± 0.13	1.042 ± 0.0085
338.15 K, x1 = 0.6002	755.897 ± 0.13	1.064 ± 0.0087
338.15 K, x1 = 0.6999	758.701 ± 0.13	1.081 ± 0.0088
338.15 K, x1 = 0.7993	761.298 ± 0.13	1.094 ± 0.0088
338.15 K, x1 = 0.8941	763.412 ± 0.13	1.105 ± 0.0089
338.15 K, x1 = 1	765.07 ± 0.13	–
343.15 K, x1 = 0.1038	735.409 ± 0.14	0.7889 ± 0.007
343.15 K, x1 = 0.2004	738.697 ± 0.14	0.8213 ± 0.0072
343.15 K, x1 = 0.3131	742.239 ± 0.14	0.8569 ± 0.0074
343.15 K, x1 = 0.3971	744.793 ± 0.14	0.8812 ± 0.0075
343.15 K, x1 = 0.4999	747.895 ± 0.14	0.9085 ± 0.0077
343.15 K, x1 = 0.6002	750.924 ± 0.13	0.9302 ± 0.0078
343.15 K, x1 = 0.6999	753.891 ± 0.13	0.9494 ± 0.0079
343.15 K, x1 = 0.7993	756.647 ± 0.13	0.9642 ± 0.008
343.15 K, x1 = 0.8941	758.895 ± 0.13	0.9753 ± 0.0081
343.15 K, x1 = 1	760.61 ± 0.13	–
